{"source": "ChEMBL document CHEMBL1671617", "about": "“Correlation of antimicrobial resistance with beta-lactamases, the OmpA-like porin, and efflux pumps in clinical isolates of Acinetobacter baumannii endemic to New York City” (2008)", "assay_type_in_all_cases": "functional", "key": {"Acinetobacter baumannii [1]": {"system": "Acinetobacter baumannii", "experiment": "Antimicrobial activity against Acinetobacter baumannii unique clonal group isolate 39 expressing ampC, ompA, adeM by Etest method"}, "Acinetobacter baumannii [2]": {"system": "Acinetobacter baumannii", "experiment": "Antimicrobial activity against ISAba1 linked with the blaOXA-51-type beta-lactamase harboring Acinetobacter baumannii zeta clonal group isolate 25 expressing ampC, ompA, adeB, adeM, aadA1, aacA4, aacC2, blaSHV-5 by Etest method"}, "Acinetobacter baumannii [3]": {"system": "Acinetobacter baumannii", "experiment": "Antimicrobial activity against ISAba1 linked with the blaOXA-51-type beta-lactamase harboring Acinetobacter baumannii lambda clonal group isolate 28 expressing ampC, ompA, adeM, aadB, aadA1 by Etest method"}, "Acinetobacter baumannii [4]": {"system": "Acinetobacter baumannii", "experiment": "Antimicrobial activity against Acinetobacter baumannii unique clonal group isolate 37 expressing ampC, ompA, adeB, adeM by Etest method"}, "Acinetobacter baumannii [5]": {"system": "Acinetobacter baumannii", "experiment": "Antimicrobial activity against Acinetobacter baumannii eta clonal group isolate 35 expressing ampC, ompA, adeB, adeM by Etest method"}, "Acinetobacter baumannii [6]": {"system": "Acinetobacter baumannii", "experiment": "Antimicrobial activity against ISAba1 linked with the blaOXA-51-type beta-lactamase harboring Acinetobacter baumannii beta clonal group isolate 12 expressing ompA, adeB, adeM, aacA4, aacC2, blaSHV-5 by Etest method"}, "Acinetobacter baumannii [7]": {"system": "Acinetobacter baumannii", "experiment": "Antimicrobial activity against ISAba1 linked with the blaOXA-51-type beta-lactamase harboring Acinetobacter baumannii lambda clonal group isolate 29 expressing ampC, ompA, adeM, aadB, aadA1 by Etest method"}, "Acinetobacter baumannii [8]": {"system": "Acinetobacter baumannii", "experiment": "Antimicrobial activity against Acinetobacter baumannii unique clonal group isolate 38 expressing ampC, ompA, adeB, adeM by Etest method"}, "Acinetobacter baumannii [9]": {"system": "Acinetobacter baumannii", "experiment": "Antimicrobial activity against Acinetobacter baumannii alpha clonal group isolate 2 expressing ampC, ompA, adeB, adeM, aacC1, aadA1 by Etest method"}, "Acinetobacter baumannii [10]": {"system": "Acinetobacter baumannii", "experiment": "Antimicrobial activity against Acinetobacter baumannii eta clonal group isolate 36 expressing ampC, ompA, adeB, adeM by Etest method"}, "Acinetobacter baumannii [11]": {"system": "Acinetobacter baumannii", "experiment": "Antimicrobial activity against ISAba1 linked with the blaOXA-51-type beta-lactamase harboring Acinetobacter baumannii unique clonal group isolate 40 expressing ampC, ompA, adeB, adeM, aadA1, aacA4, aacC2, blaSHV-5 by Etest method"}, "Acinetobacter baumannii [12]": {"system": "Acinetobacter baumannii", "experiment": "Antimicrobial activity against ISAba1 linked with the blaOXA-51-type beta-lactamase harboring Acinetobacter baumannii beta clonal group isolate 17 expressing ompA, adeB, adeM, aacA4, blaSHV-5 by Etest method"}, "Acinetobacter baumannii [13]": {"system": "Acinetobacter baumannii", "experiment": "Antimicrobial activity against ISAba1 linked with the blaOXA-51-type beta-lactamase harboring Acinetobacter baumannii alpha clonal group isolate 6 expressing ampC, ompA, adeB, adeM, aacC1, aadA1 by Etest method"}, "Acinetobacter baumannii [14]": {"system": "Acinetobacter baumannii", "experiment": "Antimicrobial activity against ISAba1 linked with the blaOXA-51-type beta-lactamase harboring Acinetobacter baumannii zeta clonal group isolate 23 expressing ampC, ompA, adeB, adeM, aadA1, aacA4, aacC2, aphA6 by Etest method"}, "Acinetobacter baumannii [15]": {"system": "Acinetobacter baumannii", "experiment": "Antimicrobial activity against ISAba1 linked with the blaOXA-51-type beta-lactamase harboring Acinetobacter baumannii zeta clonal group isolate 26 expressing ampC, ompA, adeB, adeM, aadA1, aacA4, aacC2, blaSHV-5 by Etest method"}, "Acinetobacter baumannii [16]": {"system": "Acinetobacter baumannii", "experiment": "Antimicrobial activity against Acinetobacter baumannii nu clonal group isolate 33 expressing ampC, ompA, adeB, adeM by Etest method"}, "Acinetobacter baumannii [17]": {"system": "Acinetobacter baumannii", "experiment": "Antimicrobial activity against Acinetobacter baumannii alpha clonal group isolate 5 expressing ampC, ompA, adeB, adeM, aacC1, aadA1 by Etest method"}, "Acinetobacter baumannii [18]": {"system": "Acinetobacter baumannii", "experiment": "Antimicrobial activity against ISAba1 linked with the blaOXA-51-type beta-lactamase harboring Acinetobacter baumannii beta clonal group isolate 16 expressing ompA, adeB, adeM, aacA4, blaSHV-5 by Etest method"}, "Acinetobacter baumannii [19]": {"system": "Acinetobacter baumannii", "experiment": "Antimicrobial activity against ISAba1 linked with the blaOXA-51-type beta-lactamase harboring Acinetobacter baumannii zeta clonal group isolate 24 expressing ampC, ompA, adeB, adeM, aadA1, aacA4, aacC2, blaSHV-5 by Etest method"}, "Acinetobacter baumannii [20]": {"system": "Acinetobacter baumannii", "experiment": "Antimicrobial activity against ISAba1 linked with the blaOXA-51-type beta-lactamase harboring Acinetobacter baumannii beta clonal group isolate 10 expressing ompA, adeB, adeM, aacA4, blaSHV-5 by Etest method"}, "Acinetobacter baumannii [21]": {"system": "Acinetobacter baumannii", "experiment": "Antimicrobial activity against Acinetobacter baumannii lambda clonal group isolate 27 expressing ampC, ompA, adeB, adeM, aadB, aadA1 by Etest method"}, "Acinetobacter baumannii [22]": {"system": "Acinetobacter baumannii", "experiment": "Antimicrobial activity against ISAba1 linked with the blaOXA-51-type beta-lactamase harboring Acinetobacter baumannii zeta clonal group isolate 22 expressing ampC, ompA, adeB, adeM, aadA1, aacA4, aacC2, blaSHV-5 by Etest method"}, "Acinetobacter baumannii [23]": {"system": "Acinetobacter baumannii", "experiment": "Antimicrobial activity against Acinetobacter baumannii alpha clonal group isolate 3 expressing ampC, ompA, adeB, adeM, aacC1, aadA1 by Etest method"}, "Acinetobacter baumannii [24]": {"system": "Acinetobacter baumannii", "experiment": "Antimicrobial activity against Acinetobacter baumannii nu clonal group isolate 34 expressing ampC, ompA, adeB, adeM by Etest method"}, "Acinetobacter baumannii [25]": {"system": "Acinetobacter baumannii", "experiment": "Antimicrobial activity against ISAba1 linked with the blaOXA-51-type beta-lactamase harboring Acinetobacter baumannii zeta clonal group isolate 20 expressing ampC, ompA, adeB, adeM, aacC2 by Etest method"}, "Acinetobacter baumannii [26]": {"system": "Acinetobacter baumannii", "experiment": "Antimicrobial activity against Acinetobacter baumannii alpha clonal group isolate 4 expressing ampC, ompA, adeB, adeM, aacC1, aadA1 by Etest method"}, "Acinetobacter baumannii [27]": {"system": "Acinetobacter baumannii", "experiment": "Antimicrobial activity against ISAba1 linked with the blaOXA-51-type beta-lactamase harboring Acinetobacter baumannii alpha clonal group isolate 1 expressing ampC, ompA, adeB, adeM by Etest method"}, "Acinetobacter baumannii [28]": {"system": "Acinetobacter baumannii", "experiment": "Antimicrobial activity against ISAba1 linked with the blaOXA-51-type beta-lactamase harboring Acinetobacter baumannii beta clonal group isolate 18 expressing ompA, adeB, adeM, aacA4, blaSHV-5 by Etest method"}, "Acinetobacter baumannii [29]": {"system": "Acinetobacter baumannii", "experiment": "Antimicrobial activity against ISAba1 linked with the blaOXA-51-type beta-lactamase harboring Acinetobacter baumannii zeta clonal group isolate 19 expressing ampC, ompA, adeB, adeM, aacC2 by Etest method"}, "Acinetobacter baumannii [30]": {"system": "Acinetobacter baumannii", "experiment": "Antimicrobial activity against Acinetobacter baumannii nu clonal group isolate 31 expressing ampC, ompA, adeB, adeM, aadB, aadA2 by Etest method"}, "Acinetobacter baumannii [31]": {"system": "Acinetobacter baumannii", "experiment": "Antimicrobial activity against ISAba1 linked with the blaOXA-51-type beta-lactamase harboring Acinetobacter baumannii beta clonal group isolate 9 expressing ampC, ompA, adeB, adeM by Etest method"}, "Acinetobacter baumannii [32]": {"system": "Acinetobacter baumannii", "experiment": "Antimicrobial activity against ISAba1 linked with the blaOXA-51-type beta-lactamase harboring Acinetobacter baumannii beta clonal group isolate 13 expressing ompA, adeB, adeM, aacA4, blaSHV-5 by Etest method"}, "Acinetobacter baumannii [33]": {"system": "Acinetobacter baumannii", "experiment": "Antimicrobial activity against ISAba1 linked with the blaOXA-51-type beta-lactamase harboring Acinetobacter baumannii lambda clonal group isolate 30 expressing ampC, ompA, adeB, adeM, aadB, aadA1 by Etest method"}, "Acinetobacter baumannii [34]": {"system": "Acinetobacter baumannii", "experiment": "Antimicrobial activity against ISAba1 linked with the blaOXA-51-type beta-lactamase harboring Acinetobacter baumannii beta clonal group isolate 15 expressing ompA, adeB, adeM, aacA4, blaSHV-5 by Etest method"}, "Acinetobacter baumannii [35]": {"system": "Acinetobacter baumannii", "experiment": "Antimicrobial activity against ISAba1 linked with the blaOXA-51-type beta-lactamase harboring Acinetobacter baumannii zeta clonal group isolate 21 expressing ampC, ompA, adeB, adeM, aacC2, blaSHV-5 by Etest method"}, "Acinetobacter baumannii [36]": {"system": "Acinetobacter baumannii", "experiment": "Antimicrobial activity against ISAba1 linked with the blaOXA-51-type beta-lactamase harboring Acinetobacter baumannii beta clonal group isolate 14 expressing ompA, adeB, adeM, aacA4, blaSHV-5 by Etest method"}, "Acinetobacter baumannii [37]": {"system": "Acinetobacter baumannii", "experiment": "Antimicrobial activity against ISAba1 linked with the blaOXA-51-type beta-lactamase harboring Acinetobacter baumannii alpha clonal group isolate 7 expressing ampC, ompA, adeB, adeM, blaSHV-5 by Etest method"}, "Acinetobacter baumannii [38]": {"system": "Acinetobacter baumannii", "experiment": "Antimicrobial activity against ISAba1 linked with the blaOXA-51-type beta-lactamase harboring Acinetobacter baumannii alpha clonal group isolate 8 expressing ampC, ompA, adeB, adeM, aacC1, aadA1 by Etest method"}, "Acinetobacter baumannii [39]": {"system": "Acinetobacter baumannii", "experiment": "Antimicrobial activity against ISAba1 linked with the blaOXA-51-type beta-lactamase harboring Acinetobacter baumannii beta clonal group isolate 11 expressing ompA, adeB, adeM, blaSHV-5 by Etest method"}, "Acinetobacter baumannii [40]": {"system": "Acinetobacter baumannii", "experiment": "Antimicrobial activity against Acinetobacter baumannii nu clonal group isolate 32 expressing ampC, ompA, adeB, adeM, aadB, aadA2 by Etest method"}}}
{"smiles": "NCC[C@H](O)C(=O)N[C@@H]1C[C@H](N)[C@@H](O[C@H]2O[C@H](CN)[C@@H](O)[C@H](O)[C@H]2O)[C@H](O)[C@H]1O[C@H]1O[C@H](CO)[C@@H](O)[C@H](N)[C@H]1O", "note": "[AMIKACIN]", "values": [{"measurement": "MIC", "setting": "Acinetobacter baumannii [1]", "result": 1.5, "unit": "µg/mL"}, {"measurement": "MIC", "setting": "Acinetobacter baumannii [2]", "result": 32, "unit": "µg/mL"}, {"measurement": "MIC", "setting": "Acinetobacter baumannii [3]", "result": 3, "unit": "µg/mL"}, {"measurement": "MIC", "setting": "Acinetobacter baumannii [4]", "result": 6, "unit": "µg/mL"}, {"measurement": "MIC", "setting": "Acinetobacter baumannii [5]", "result": 3, "unit": "µg/mL"}, {"measurement": "MIC", "setting": "Acinetobacter baumannii [6]", "result": 24, "unit": "µg/mL"}, {"measurement": "MIC", "setting": "Acinetobacter baumannii [7]", "result": 3, "unit": "µg/mL"}, {"measurement": "MIC", "setting": "Acinetobacter baumannii [8]", "result": 1.5, "unit": "µg/mL"}, {"measurement": "MIC", "setting": "Acinetobacter baumannii [9]", "result": 2, "unit": "µg/mL"}, {"measurement": "MIC", "setting": "Acinetobacter baumannii [10]", "result": 3, "unit": "µg/mL"}, {"measurement": "MIC", "setting": "Acinetobacter baumannii [11]", "result": 32, "unit": "µg/mL"}, {"measurement": "MIC", "setting": "Acinetobacter baumannii [12]", "result": 8, "unit": "µg/mL"}, {"measurement": "MIC", "setting": "Acinetobacter baumannii [13]", "result": 1.5, "unit": "µg/mL"}, {"measurement": "MIC", "setting": "Acinetobacter baumannii [14]", "result": 24, "unit": "µg/mL"}, {"measurement": "MIC", "setting": "Acinetobacter baumannii [15]", "result": 32, "unit": "µg/mL"}, {"measurement": "MIC", "setting": "Acinetobacter baumannii [16]", "result": 3, "unit": "µg/mL"}, {"measurement": "MIC", "setting": "Acinetobacter baumannii [17]", "result": 2, "unit": "µg/mL"}, {"measurement": "MIC", "setting": "Acinetobacter baumannii [18]", "result": 8, "unit": "µg/mL"}, {"measurement": "MIC", "setting": "Acinetobacter baumannii [19]", "result": 32, "unit": "µg/mL"}, {"measurement": "MIC", "setting": "Acinetobacter baumannii [20]", "result": 6, "unit": "µg/mL"}, {"measurement": "MIC", "setting": "Acinetobacter baumannii [21]", "result": "< 0.5", "unit": "µg/mL"}, {"measurement": "MIC", "setting": "Acinetobacter baumannii [22]", "result": 48, "unit": "µg/mL"}, {"measurement": "MIC", "setting": "Acinetobacter baumannii [23]", "result": 2, "unit": "µg/mL"}, {"measurement": "MIC", "setting": "Acinetobacter baumannii [24]", "result": 3, "unit": "µg/mL"}, {"measurement": "MIC", "setting": "Acinetobacter baumannii [25]", "result": 3, "unit": "µg/mL"}, {"measurement": "MIC", "setting": "Acinetobacter baumannii [26]", "result": 2, "unit": "µg/mL"}, {"measurement": "MIC", "setting": "Acinetobacter baumannii [27]", "result": 1.5, "unit": "µg/mL"}, {"measurement": "MIC", "setting": "Acinetobacter baumannii [28]", "result": 24, "unit": "µg/mL"}, {"measurement": "MIC", "setting": "Acinetobacter baumannii [29]", "result": 3, "unit": "µg/mL"}, {"measurement": "MIC", "setting": "Acinetobacter baumannii [30]", "result": 4, "unit": "µg/mL"}, {"measurement": "MIC", "setting": "Acinetobacter baumannii [31]", "result": 4, "unit": "µg/mL"}, {"measurement": "MIC", "setting": "Acinetobacter baumannii [32]", "result": 8, "unit": "µg/mL"}, {"measurement": "MIC", "setting": "Acinetobacter baumannii [33]", "result": 48, "unit": "µg/mL"}, {"measurement": "MIC", "setting": "Acinetobacter baumannii [34]", "result": 8, "unit": "µg/mL"}, {"measurement": "MIC", "setting": "Acinetobacter baumannii [35]", "result": 3, "unit": "µg/mL"}, {"measurement": "MIC", "setting": "Acinetobacter baumannii [36]", "result": 8, "unit": "µg/mL"}, {"measurement": "MIC", "setting": "Acinetobacter baumannii [37]", "result": 2, "unit": "µg/mL"}, {"measurement": "MIC", "setting": "Acinetobacter baumannii [38]", "result": 4, "unit": "µg/mL"}, {"measurement": "MIC", "setting": "Acinetobacter baumannii [39]", "result": 3, "unit": "µg/mL"}, {"measurement": "MIC", "setting": "Acinetobacter baumannii [40]", "result": 4, "unit": "µg/mL"}]}
